Experimental data: the NIST ThermoML archive (doi:10.1021/acs.jced.8b01217)
± gives the expanded uncertainty stated by the source.

Details: Liquid, Ebulliometric method (Recirculating still)

O [water]
Details | vapor or sublimation pressure [kPa]
310.81 K | 6.424 ± 0.13
327.62 K | 15.58 ± 0.27
339.92 K | 27.15 ± 0.47
349.24 K | 41.77 ± 0.7
353.35 K | 47.72 ± 0.81
357.89 K | 57.67 ± 0.97
362.48 K | 68.16 ± 1.1
366.81 K | 80.61 ± 1.4
370.97 K | 93.23 ± 1.6
375.04 K | 107.24 ± 1.8
